Laboratory results published in patent US8808702B2, “Sulfide, sulfoxide and sulfone chalcone analogues, derivatives thereof and therapeutic uses thereof” (Temple University-of the Commonwealth System of Higher …, priority 2006, dated 2014).
pIC50: −log10 of the molar value. Where two headings read alike, the source gives them in different places.

Tests used:
[1] = system: K562 (chronic myelogenous leukaemia); test: Effect of compounds on tumor cell lines (assay of Latham et al.), K562; type: cell-based; details: Homo sapiens, Table 4, K562 cells, examined 96 hours after treatment, 1 μM to 100 μM in DMSO
Method in brief: (§1)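 K562 or DU145 cells plated at 2.5×10^4 cells/well, treated 24 h later with compound in DMSO at 1 μM to 100 μM (0.1 μM to 100 μM for one compound). Activity judged by microscopic observation after 96 h; where needed, viable cells counted by trypan blue exclusion.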

DU145 (prostate cancer) = test: Effect of compounds on tumor cell lines (assay of Latham et al.), DU145; type: cell-based; details: Homo sapiens, DU-145, Table 4, DU145 cells, examined 96 hours after treatment, 1 μM to 100 μM in DMSO
Method in brief: as §1

[2] = read-out: DU 145 potency (IC50)
[3] = read-out: K 562 potency (IC50), given as number

SMILES | pIC50 ([1]; read-out: K 562 potency (IC50)) | pIC50 (DU145 (prostate cancer); [2]) | melting point [°C] | pIC50 [1, 3] | pIC50 (DU145 (prostate cancer); read-out: DU 145 potency (IC50), given as number)
Cc1ccc(/C=C(\C(=O)c2ccc(Cl)cc2)S(=O)(=O)Cc2ccc(Cl)cc2)s1 [Example 396] | 5.00 to 6.00 | 5.00 to 6.00 | 148 to 152 |  | 
Cc1ccc(/C=C(\C(=O)c2ccc([N+](=O)[O-])cc2)S(=O)(=O)Cc2ccc(Cl)cc2)s1 [Example 397] | 4.60 to 5.00 | 4.30 to 4.60 | 180 to 182 |  | 
O=C(/C(=C\c1ccc(-c2ccccc2)cc1)S(=O)(=O)Cc1ccc(Cl)cc1)c1ccc(Cl)cc1 [Example 398] | 4.30 to 4.60 | 4.30 to 4.60 | 65 to 72 |  | 
COc1cc(OC)c(/C=C(\C(=O)c2ccc(Br)cc2)S(=O)(=O)Cc2ccc(F)cc2)c(OC)c1 [Example 399] | 4.00 to 4.30 | 4.00 to 4.30 | 176 to 182 |  | 
COc1cc(OC)c(/C=C(\C(=O)c2ccc(Cl)cc2)S(=O)(=O)Cc2ccc(F)cc2)c(OC)c1 [Example 400] | 5.00 to 6.00 | 4.30 to 4.60 | 134 to 138 |  | 
Cc1ccc(C)c(/C=C(\C(=O)c2ccc(Br)cc2)S(=O)(=O)Cc2ccc(F)cc2)c1 [Example 401] | 5.00 to 6.00 | 5.00 to 6.00 | 167 to 173 |  | 
O=C(/C(=C\c1cc([N+](=O)[O-])ccc1F)S(=O)(=O)Cc1ccc(F)cc1)c1ccc(Br)cc1 [Example 403] | 4.00 to 4.30 | < 4.00 | 172 to 177 |  | 
Cc1cc(C)cc(/C=C(\C(=O)c2ccc(Br)cc2)S(=O)(=O)Cc2ccc(F)cc2)c1 [Example 405] | 4.60 to 5.00 | 4.60 to 5.00 | 140 to 143 |  | 
O=C(/C(=C\c1c[nH]c2ccccc12)S(=O)(=O)Cc1ccc(F)cc1)c1ccc(Cl)cc1 [Example 406] | 4.00 to 4.30 | 4.00 to 4.30 | > 200 |  | 
Cc1ccsc1/C=C(\C(=O)c1ccc(Cl)cc1)S(=O)(=O)Cc1ccc(F)cc1 [Example 407] | 5.00 to 6.00 | 4.60 to 5.00 | 146 to 158 |  | 
CN(C)c1ccc(/C=C(\C(=O)c2ccc(Br)cc2)S(=O)(=O)Cc2ccc(F)cc2)cc1 [Example 408] | 4.00 to 4.30 | 4.00 to 4.30 | 155 to 162 |  | 

Continued, values first:

pIC50 ([1]; read-out: K 562 potency (IC50)) | pIC50 (DU145 (prostate cancer); [2]) | melting point [°C] | pIC50 [1, 3] | pIC50 (DU145 (prostate cancer); read-out: DU 145 potency (IC50), given as number) | SMILES
4.60 to 5.00 | 4.30 to 4.60 | 164 to 168 |  |  | O=C(/C(=C\c1ccc(Br)cc1)S(=O)(=O)Cc1ccc(F)cc1)c1ccc(Br)cc1 [Example 409]
4.30 to 4.60 | 4.00 to 4.30 | 145 to 149 |  |  | CCOc1ccc(/C=C(\C(=O)c2ccc(Cl)cc2)S(=O)(=O)Cc2ccc(F)cc2)cc1OC [Example 412]
 |  | 168 to 170 | < 4.30 | < 4.30 | O=C(/C(=C\c1ccc(Br)cc1)S(=O)(=O)Cc1ccc(I)cc1)c1ccc(Br)cc1 [Example 418]
4.30 to 4.60 | 4.30 to 4.60 | 180 to 182 |  |  | O=C(/C(=C\c1ccc(Br)cc1)S(=O)(=O)Cc1ccc(I)cc1)c1ccc(I)cc1 [Example 419, (E)-1-(4-Iodophenyl)-2-(4-iodobenzylsulfonyl)-3-(4-bromophenyl)prop-2-en-1-one]
 | 4.30 to 4.60 | 160 to 162 | < 4.30 |  | O=C(/C(=C\c1ccc(I)cc1)S(=O)(=O)Cc1ccc(I)cc1)c1ccc(Br)cc1 [Example 420, (E)-1-(4-bromophenyl)-2-(4-iodobenzylsulfonyl)-3-(4-iodophenyl)-prop-2-en-1-one]
 | 4.30 to 4.60 | 175 to 177 | < 4.30 |  | O=C(/C(=C\c1ccc(I)cc1)S(=O)(=O)Cc1ccc(I)cc1)c1ccc(I)cc1 [Example 421, (E)-1-(4-iodophenyl)-2-(4-iodobenzylsulfonyl)-3-(4-iodophenyl)-prop-2-en-1-one]
5.00 to 6.00 | 5.00 to 6.00 | 162 to 165 |  |  | Cc1ccc(CS(=O)(=O)/C(=C/c2cccc(Cl)c2Cl)C(=O)c2ccc(Cl)cc2)cc1 [Example 423]
